US6737383B1, “Herbicidal oxadiazolidines” (priority 1999, dated 2004)

Assays:
barnyardgrass = experiment: Test C postemergence barnyardgrass; format: in vivo, Echinochloa crus-galli; settings: 0 to 100 scale, 0 no effect, 100 complete control
Summary of the method: (§1)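 Compounds in a non-phytotoxic solvent mixture with surfactant were sprayed postemergence on greenhouse-grown plants sized for treatment, in 60:40 sandy loam soil:potting mix. After about 14 to 21 days, injury was rated visually against untreated controls on a 0–100 scale (0 no effect, 100 complete control).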

common ragweed = experiment: Test C postemergence common ragweed; format: in vivo, Ambrosia elatior; settings: 0 to 100 scale, 0 no effect, 100 complete control
Summary of the method: as §1

eastern black nightshade = experiment: Test C postemergence eastern black nightshade; format: in vivo, Solanum ptycanthum; settings: 0 to 100 scale, 0 no effect, 100 complete control
Procedure: (§2) Compounds evaluated in this test were formulated in a non-phytotoxic solvent mixture which included a surfactant and applied to plants that were grown for various periods of time before treatment (postemergence application). A mixture of sandy loam soil and greenhouse potting mix in a 60:40 ratio was used for the postemergence test.
(§3) Plantings of these crops and weed species were adjusted to produce plants of appropriate size for the postemergence test. All plant species were grown using normal greenhouse practices. Crop and weed species include arrowleaf sida (Sida rhombifolia), barnyardgrass (Echinochloa crus-galli), cocklebur (Xanthium strumarium), common ragweed (Ambrosia elatior), corn (Zea mays), cotton (Gossypium hirsutum), eastern black nightshade (Solanum ptycanthum), fall panicum (Panicum dichotomiflorum), field bindweed (Convolvulus arvensis), giant foxtail (Setaria faberii), hairy beggarticks (Bidens pilosa), ivyleaf morningglory (Ipomoea hederacea), johnsongrass (Sorghum halepense), ladysthumb smartweed (Polygonum persicaria), lambsquarters (Chenopodium album), large crabgrass (Digitaria sanguinalis), purple nutsedge (Cyperus rotundus), redroot pigweed (Amaranthus retroflexus), soybean (Glycine max), surinam grass (Brachiaria decumbens), velvetleaf (Abutilon theophrasti) and wild poinsettia (Euphorbia heterophylla).
(§4) Treated plants and untreated controls were maintained in a greenhouse for approximately 14, to 21 days, after which all treated plants were compared to untreated controls and visually evaluated. Plant response ratings, summarized in Table C, were based upon a 0 to 100 scale where 0 was no effect and 100 was complete control. A dash response (−) means no test result.

fall panicum = experiment: Test C postemergence fall panicum; format: in vivo, Panicum dichotomiflorum; settings: 0 to 100 scale, 0 no effect, 100 complete control
Procedure: as §2, §3, §4

ivyleaf morningglory = experiment: Test C postemergence ivyleaf morningglory; format: in vivo, Ipomoea hederacea; settings: 0 to 100 scale, 0 no effect, 100 complete control
Procedure: as §2, §3, §4

purple nutsedge = experiment: Test C postemergence purple nutsedge; format: in vivo, Cyperus rotundus; settings: 0 to 100 scale, 0 no effect, 100 complete control
Procedure: as §2, §3, §4

velvetleaf = experiment: Test C postemergence velvetleaf; format: in vivo, Abutilon theophrasti; settings: 0 to 100 scale, 0 no effect, 100 complete control
Summary of the method: as §1

littleseed canarygrass = experiment: Test E littleseed canarygrass; format: in vivo, Phalaris minor; settings: Postemergence; for Plant response rating, LS canarygrass: 0 to 100 scale; for LS canarygrass plant response rating: Rate 250 g/ha, 0 to 100 scale where 0 is no effect and 100 is complete control
Procedure: as §2, with “in the 1- to 4-leaf stage” for “grown for various periods of time before treatment”
(§5) Plantings of these crops and weed species were adjusted to produce plants of appropriate size for the postemergence test. All plant species were grown using normal greenhouse practices. Crop and weed species include annual bluegrass (Poa annua), blackgrass (Alopecurus myosuroides), black nightshade (Solanum nigra), chickweed (Stellaria media), common poppy (Papaver rhoeas), deadnettle (Lamium amplexicaule), downy brome (Bromus tectorum), field violet (Viola arvensis), galium (Galium aparine), green foxtail (Setaria viridis), Italian ryegrass (Lolium multiflorum), jointed goatgrass (Aegilops cylindrica), kochia (Kochia scoparia), lambsquarters (Chenopodium album), littleseed canarygrass (Phalaris minor), rape (Brassica napus), redroot pigweed (Amaranthus retroflexus), Russian thistle (Salsola kali), scentless chamomile (Matricaria inodora), spring barley (Hordeum vulgare), sugar beet (Beta vulgaris), sunflower (Helianthus annuus), ivyleaf speedwell (Veronica hederaefolia), spring wheat (Triticum aestivum), winter wheat (Triticum aestivum), wild buckwheat (Polygonum convolvulus), wild mustard (Sinapis arvensis), wild oat (Avena fatua), windgrass (Apera spica-venti) and winter barley (Hordeum vulgare).
(§6) Treated plants and untreated controls were maintained in a greenhouse for approximately 21 to 28 days, after which all treated plants were compared to untreated controls and visually evaluated. […] A dash response (-) means no test result.

spring barley = experiment: Test E spring barley; format: in vivo, Hordeum vulgare; settings: Postemergence; for Plant response rating, Spring Barley: 0 to 100 scale; for Spring Barley plant response rating: Rate 250 g/ha, 0 to 100 scale where 0 is no effect and 100 is complete control
Procedure: as §2, with “in the 1- to 4-leaf stage” for “grown for various periods of time before treatment”
as §5, §6

spring wheat = experiment: Test E spring wheat; format: in vivo, Triticum aestivum; settings: Postemergence; for Plant response rating, Spring Wheat: 0 to 100 scale; for Spring Wheat plant response rating: Rate 250 g/ha, 0 to 100 scale where 0 is no effect and 100 is complete control
Procedure: as §2, with “in the 1- to 4-leaf stage” for “grown for various periods of time before treatment”
as §5, §6

wild mustard = experiment: Test E wild mustard; format: in vivo, Sinapis arvensis; settings: Postemergence; for Plant response rating, Wild mustard: 0 to 100 scale; for Wild mustard plant response rating: Rate 250 g/ha, 0 to 100 scale where 0 is no effect and 100 is complete control
Procedure: […] A mixture of sandy loam soil and greenhouse potting mix in a 60:40 ratio was used for the postemergence test.
as §5, §6

wild oat = experiment: Test E wild oat; format: in vivo, Avena fatua; settings: Postemergence; for Plant response rating, Wild oat: 0 to 100 scale
Summary of the method: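 Greenhouse-grown plants are treated (postemergence: 1- to 4-leaf stage, sandy loam/potting mix 60:40), then evaluated visually versus untreated controls some 21 to 28 days later.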

surinam grass = experiment: Test D surinam grass; format: in vivo, Brachiaria decumbens; settings: Postemergence, 0 to 100 scale
galium = experiment: Test E galium; format: in vivo, Galium aparine; settings: Preemergence; for Galium plant response rating (0 to 100 scale): Rate 250 g/ha
lambsquarters = experiment: Test E lambsquarters; format: in vivo, Chenopodium album; settings: Preemergence; for Lambsquarters plant response rating (0 to 100 scale): Rate 250 g/ha
sugar beet = experiment: Test E sugar beet; format: in vivo, Beta vulgaris; settings: Preemergence; for Sugar beet plant response rating (0 to 100 scale): Rate 250 g/ha
Green foxtail = experiment: Test D green foxtail; format: in vivo; settings: Postemergence, 0 to 100 scale, 0 no injury, 100 complete control
[1] = Rate 125 g/ha, 0 is no effect, 100 is complete control
[2] = Rate 500 g/ha, 0 is no effect, 100 is complete control
[3] = Rate 16 g/ha, 0 no injury, 100 complete control
[4] = Rate 32 g/ha, 0 no injury, 100 complete control
[5] = Rate 64 g/ha, 0 no injury, 100 complete control
[6] = Rate 125 g/ha, 0 no injury, 100 complete control
[7] = Rate 125 g/ha, 0 to 100 scale (0 no effect, 100 complete control)
[8] = Rate 500 g/ha, 0 to 100 scale where 0 is no effect and 100 is complete control

CC(C)N(C(=O)n1oc(=O)n(C2CC2)c1=O)c1ccc(F)cc1 [Compound 242]
Plant response rating, Barnyardgrass (barnyardgrass; Rate 140 g/ha): 80 | Plant response rating, Barnyardgrass (barnyardgrass; Rate 280 g/ha): 85 | Plant response rating, Barnyardgrass (barnyardgrass; Rate 560 g/ha): 90 | Plant response rating, Barnyardgrass (barnyardgrass; Rate 1120 g/ha): 95 | Plant response rating Common ragweed (common ragweed; Rate 140 g/ha): 0 | Plant response rating Common ragweed (common ragweed; Rate 280 g/ha): 10 | Plant response rating Common ragweed (common ragweed; Rate 560 g/ha): 80 | Plant response rating Common ragweed (common ragweed; Rate 1120 g/ha): 80 | Plant response rating E. blacknightsh (eastern black nightshade; Rate 140 g/ha): 0 | Plant response rating E. blacknightsh (eastern black nightshade; Rate 280 g/ha): 40 | Plant response rating E. blacknightsh (eastern black nightshade; Rate 560 g/ha): 60 | Plant response rating E. blacknightsh (eastern black nightshade; Rate 1120 g/ha): 90 | Plant response rating Fall panicum (fall panicum; Rate 140 g/ha): 30 | Plant response rating Fall panicum (fall panicum; Rate 280 g/ha): 85 | Plant response rating Fall panicum (fall panicum; Rate 560 g/ha): 90 | Plant response rating Fall panicum (fall panicum; Rate 1120 g/ha): 90 | Plant response rating I. morningglory (ivyleaf morningglory; Rate 140 g/ha): 0 | Plant response rating I. morningglory (ivyleaf morningglory; Rate 280 g/ha): 0 | Plant response rating I. morningglory (ivyleaf morningglory; Rate 560 g/ha): 0 | Plant response rating I. morningglory (ivyleaf morningglory; Rate 1120 g/ha): 0 | Plant response rating, Purple nutsedge (purple nutsedge; Rate 140 g/ha): 0 | Plant response rating, Purple nutsedge (purple nutsedge; Rate 280 g/ha): 0 | Plant response rating, Purple nutsedge (purple nutsedge; Rate 560 g/ha): 10 | Plant response rating, Purple nutsedge (purple nutsedge; Rate 1120 g/ha): 80 | Plant response rating, Velvetleaf (velvetleaf; Rate 140 g/ha): 0 | Plant response rating, Velvetleaf (velvetleaf; Rate 280 g/ha): 0 | Plant response rating, Velvetleaf (velvetleaf; Rate 560 g/ha): 40 | Plant response rating, Velvetleaf (velvetleaf; Rate 1120 g/ha): 60 | Plant response rating, LS canarygrass (littleseed canarygrass; Rate 62 g/ha): 65 | Plant response rating, LS canarygrass (littleseed canarygrass; [1]): 10 | LS canarygrass plant response rating (littleseed canarygrass): 15 | Plant response rating, LS canarygrass (littleseed canarygrass; [2]): 50 | Plant response rating, Spring Barley (spring barley; Rate 62 g/ha): 5 | Plant response rating, Spring Barley (spring barley; [1]): 20 | Spring Barley plant response rating (spring barley): 20 | Plant response rating, Spring Barley (spring barley; [2]): 20 | Plant response rating, Spring Wheat (spring wheat; Rate 62 g/ha): 15 | Plant response rating, Spring Wheat (spring wheat; [1]): 20 | Spring Wheat plant response rating (spring wheat): 10 | Plant response rating, Spring Wheat (spring wheat; [2]): 20 | Plant response rating, Wild mustard (wild mustard; Rate 62 g/ha): 0 | Plant response rating, Wild mustard (wild mustard; [1]): 20 | Wild mustard plant response rating (wild mustard): 20 | Plant response rating, Wild mustard (wild mustard; [2]): 5 | Plant response rating, Wild oat (wild oat; [1]): 0 | Plant response rating, Wild oat (wild oat; [2]): 20 | Plant response rating, Surinam grass (surinam grass; [3]): 0 | Plant response rating, Surinam grass (surinam grass; [4]): 30 | Surinam grass plant response rating (surinam grass; [5]): 100 | Surinam grass plant response rating (surinam grass; [6]): 100 | Plant response rating, Surinam grass (surinam grass; Rate 250 g/ha): 100 | Plant response rating, Galium (galium; [7]): 0 | Galium plant response rating (0 to 100 scale) (galium): 100 | Plant response rating, Galium (galium; [8]): 100 | Plant response rating Lambsquarters (lambsquarters; [7]): 100 | Lambsquarters plant response rating (0 to 100 scale) (lambsquarters): 100 | Plant response rating Lambsquarters (lambsquarters; [8]): 100 | Plant response rating, Sugar beet (sugar beet; [7]): 30 | Sugar beet plant response rating (0 to 100 scale) (sugar beet): 50 | Plant response rating, Sugar beet (sugar beet; [8]): 65 | Plant response rating, Green foxtail (Green foxtail; Rate 16 g/ha): 30 | Plant response rating, Green foxtail (Green foxtail; Rate 32 g/ha): 100

CC(C)N(C(=O)n1oc(=O)n(C)c1=O)c1ccc(F)cc1 [Compound 138]
Plant response rating, Barnyardgrass (barnyardgrass; Rate 140 g/ha): 40 | Plant response rating, Barnyardgrass (barnyardgrass; Rate 280 g/ha): 70 | Plant response rating, Barnyardgrass (barnyardgrass; Rate 560 g/ha): 85 | Plant response rating, Barnyardgrass (barnyardgrass; Rate 1120 g/ha): 85 | Plant response rating Common ragweed (common ragweed; Rate 140 g/ha): 0 | Plant response rating Common ragweed (common ragweed; Rate 280 g/ha): 0 | Plant response rating Common ragweed (common ragweed; Rate 560 g/ha): 0 | Plant response rating E. blacknightsh (eastern black nightshade; Rate 140 g/ha): 0 | Plant response rating E. blacknightsh (eastern black nightshade; Rate 280 g/ha): 10 | Plant response rating E. blacknightsh (eastern black nightshade; Rate 560 g/ha): 70 | Plant response rating E. blacknightsh (eastern black nightshade; Rate 1120 g/ha): 70 | Plant response rating Fall panicum (fall panicum; Rate 140 g/ha): 0 | Plant response rating Fall panicum (fall panicum; Rate 280 g/ha): 0 | Plant response rating Fall panicum (fall panicum; Rate 560 g/ha): 60 | Plant response rating Fall panicum (fall panicum; Rate 1120 g/ha): 90 | Plant response rating I. morningglory (ivyleaf morningglory; Rate 140 g/ha): 0 | Plant response rating I. morningglory (ivyleaf morningglory; Rate 280 g/ha): 0 | Plant response rating I. morningglory (ivyleaf morningglory; Rate 560 g/ha): 0 | Plant response rating I. morningglory (ivyleaf morningglory; Rate 1120 g/ha): 0 | Plant response rating, Purple nutsedge (purple nutsedge; Rate 140 g/ha): 0 | Plant response rating, Purple nutsedge (purple nutsedge; Rate 280 g/ha): 0 | Plant response rating, Purple nutsedge (purple nutsedge; Rate 560 g/ha): 50 | Plant response rating, Purple nutsedge (purple nutsedge; Rate 1120 g/ha): 70 | Plant response rating, Velvetleaf (velvetleaf; Rate 140 g/ha): 0 | Plant response rating, Velvetleaf (velvetleaf; Rate 280 g/ha): 60 | Plant response rating, Velvetleaf (velvetleaf; Rate 560 g/ha): 70 | Plant response rating, Velvetleaf (velvetleaf; Rate 1120 g/ha): 80 | Plant response rating, LS canarygrass (littleseed canarygrass; Rate 125 g/ha): 10 | LS canarygrass plant response rating (littleseed canarygrass): 10 | Plant response rating, Spring Barley (spring barley; Rate 125 g/ha): 0 | Spring Barley plant response rating (spring barley): 5 | Plant response rating, Spring Wheat (spring wheat; Rate 125 g/ha): 0 | Spring Wheat plant response rating (spring wheat): 0 | Plant response rating, Wild mustard (wild mustard; Rate 125 g/ha): 0 | Wild mustard plant response rating (wild mustard): 0 | Plant response rating, Wild oat (wild oat; Rate 125 g/ha): 0 | Wild oat plant response rating (wild oat; Rate 250 g/ha, 0 to 100 scale where 0 is no effect and 100 is complete control): 0 | Plant response rating, Galium (galium; [7]): 50 | Galium plant response rating (0 to 100 scale) (galium): 70 | Plant response rating Lambsquarters (lambsquarters; [7]): 100 | Lambsquarters plant response rating (0 to 100 scale) (lambsquarters): 100 | Plant response rating, Sugar beet (sugar beet; [7]): 0 | Sugar beet plant response rating (0 to 100 scale) (sugar beet): 50

CC(C)N(C(=O)n1oc(=O)n(C2CCCCCC2)c1=O)c1ccc(F)cc1F [Compound 342]
Plant response rating, Surinam grass (surinam grass; [3]): 0 | Plant response rating, Surinam grass (surinam grass; [4]): 0 | Surinam grass plant response rating (surinam grass; [5]): 20 | Surinam grass plant response rating (surinam grass; [6]): 30 | Plant response rating, Surinam grass (surinam grass; Rate 250 g/ha): 40 | Plant response rating, Green foxtail (Green foxtail; Rate 16 g/ha): 0 | Plant response rating, Green foxtail (Green foxtail; Rate 32 g/ha): 0
